Data as given in PubChem BioAssay (NCI).
Several values for one entry are separate records, joined by “and”; a condition that tells them apart may be missing. Equal values may be shown once.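 96-well plates; 48 h exposure; 5 concentrations. Endpoints by linear interpolation between flanking doses. Not reached: highest tested concentration assigned. GI50: concentration for 50% inhibition of growth. TGI: concentration producing complete growth inhibition.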

Legend:
Experiment in all cases: inhibition of tumour cell growth, NCI panel, 48 h
MDA-MB-435 = system: MDA-MB-435
DU-145 prostate = system: DU-145 prostate
MALME-3M melanoma = system: MALME-3M melanoma
MDA-MB-231 breast = system: MDA-MB-231 breast
HCT-15 colon = system: HCT-15 colon
SK-MEL-5 melanoma = system: SK-MEL-5 melanoma
T-47D breast = system: T-47D breast
OVCAR-4 ovarian = system: OVCAR-4 ovarian
OVCAR-3 ovarian = system: OVCAR-3 ovarian
COLO 205 colon = system: COLO 205 colon

Structure (SMILES) | GI50 (MDA-MB-435) | TGI (MDA-MB-435) | GI50 (DU-145 prostate) | TGI (DU-145 prostate) | GI50 (MALME-3M melanoma) | TGI (MALME-3M melanoma) | GI50 (MDA-MB-231 breast) | TGI (MDA-MB-231 breast) | GI50 (HCT-15 colon) | TGI (HCT-15 colon) | GI50 (SK-MEL-5 melanoma) | TGI (SK-MEL-5 melanoma) | GI50 (T-47D breast) | TGI (T-47D breast) | GI50 (OVCAR-4 ovarian) | TGI (OVCAR-4 ovarian) | GI50 (OVCAR-3 ovarian) | TGI (OVCAR-3 ovarian) | GI50 (COLO 205 colon) | TGI (COLO 205 colon)
Cn1cc(C2=C(c3cn(C)c4c(N)cccc34)C(=O)NC2=O)c2ccccc21 | 0.0872 µM | > 25 µM | 2.48 µM | > 25 µM | 9.53 µM | > 25 µM | 4.63 µM | 20.8 µM | 0.743 µM | > 25 µM | 1.38 µM | > 14.2 µM | 1.31 µM | 11.9 µM | 8.3 µM | > 23.6 µM | 0.507 µM | 1.45 µM | 1.99 µM | 9.96 µM
Cn1cc(C2=C(c3cn(CCCN=C(N)N)c4ccccc34)C(=O)NC2=O)c2ccccc21 | > 25 µM | > 25 µM | > 25 µM | > 25 µM | > 25 µM | > 25 µM | > 25 µM | > 25 µM | > 25 µM | > 25 µM | > 25 µM | > 25 µM | > 25 µM | > 25 µM | > 25 µM | > 25 µM | > 25 µM | > 25 µM | 9.76 µM | > 25 µM
COc1cc2c(/C=C3/C(=O)Nc4cccc(Cl)c43)c(Cl)n(Cc3ccccc3)c2cc1C | 1.11 µM | 5.82 µM | 11.2 µM | > 100 µM | 14.2 µM | 41.4 µM | 3.38 µM | 24.4 µM | 3.12 µM | 31.3 µM | 2.17 µM | 11.5 µM | 14 µM | > 100 µM | 7.73 µM | > 100 µM | 8.84 µM | 25.2 µM | 2.94 µM | 21.8 µM
COc1ccc(C2CC(=O)c3c(O)c(OC)c(OC)c(OC)c3O2)c(O)c1 (stereo not given) |  |  | 0.25 µM | 15.9 µM | 13.1 µM | 26.7 µM | 0.997 µM | 31.7 µM | 0.0498 µM | 17.8 µM | 0.0673 µM | 2.03 µM | 0.113 µM | 24.6 µM | 1.18 µM | 66.9 µM |  |  | 4.43 µM | 18 µM
COc1cc([C@@H]2c3cc4c(cc3C(O[C@@H]3O[C@@H]5CO[C@@H](c6cccs6)OC5[C@H](O)[C@H]3O)C3COC(=O)[C@@H]32)OCO4)cc(OC)c1O (stereo not given in full) | 0.261 µM | 2.12 µM | 0.0459 µM | 0.369 µM | 0.0768 µM | 1.02 µM | 0.267 µM | 3.58 µM | 0.499 µM | 19.4 µM | 0.0567 µM | 0.573 µM | 0.0207 µM | 0.434 µM | 0.401 µM | 3.95 µM | 0.248 µM | 1.19 µM | 0.0984 µM | 0.809 µM
NC(N)=NC(N)=Nc1cc2ccccc2c2ccccc12 | 12.4 µM | 25.4 µM | 11.9 µM | 25 µM | 7.16 µM | 22.1 µM | 3.52 µM | 16 µM | 14.9 µM | 30.5 µM | 10.4 µM | 22.8 µM | 11 µM | 29.3 µM | 10.1 µM | 25.9 µM | 12.3 µM | 26.6 µM | 1.84 µM | 4.49 µM
Cc1c2c(nn1-c1ccc(S(=O)(=O)/N=C3\SCC(=O)N3C(=O)c3ccccc3)cc1)-c1ccccc1CC2 | 26.1 µM | 60.8 µM | 38.6 µM | > 100 µM |  |  | 24 µM | 58.7 µM | 22.4 µM | 49.5 µM | 25.1 µM | 48.9 µM |  |  | 77.5 µM | > 100 µM | 15.8 µM | 39.1 µM |  | 
CCCCn1c(-c2ccc(C(=O)O/N=C(\N)c3ccc(OC)cc3)cc2)nc(-c2ccccc2)c1-c1ccccc1 | 1.74 µM | 3.28 µM | 1.27 µM | 2.59 µM |  |  |  |  |  |  |  |  | 1.92 µM | 4.59 µM |  |  |  |  |  | 
COc1ccc(-c2cc3c(nn2)-c2ccccc2C3=O)cc1 | > 100 µM | > 100 µM | > 100 µM | > 100 µM | > 100 µM | > 100 µM | 70 µM | > 100 µM | > 100 µM | > 100 µM | > 100 µM | > 100 µM | > 100 µM | > 100 µM | > 100 µM | > 100 µM | > 100 µM | > 100 µM | > 100 µM | > 100 µM
COc1cccc(N=Cc2c3ccccc3c(=O)n3c2oc2ccccc23)c1 | 7.27 µM | 46.4 µM | 21.8 µM | > 100 µM |  |  | 10.2 µM | 48.7 µM | 14.4 µM | > 100 µM | 17.5 µM | 37.1 µM | > 100 µM | > 100 µM | > 100 µM | > 100 µM | 4.44 µM | 45.3 µM | 34.5 µM | > 100 µM
COc1cc(Cn2c(-c3ccccc3)cc3c2-c2oncc2CC3)cc(OC)c1OC | 0.248 µM | 0.905 µM | 1.73 µM | > 100 µM | 18.4 µM | 84.4 µM | 2.82 µM | > 100 µM | 0.64 µM | > 100 µM | 0.882 µM | 16.8 µM | 1.07 µM | 81.2 µM | 3.12 µM | > 100 µM | 0.372 µM | 1.65 µM | 0.696 µM | 3.13 µM
COc1ccc2cc(C(=O)/C=C/c3cccc(OC)c3OC)ccc2c1 | 5.16 µM | 29.7 µM | 15.3 µM | 34.2 µM | 10.4 µM | 29.4 µM | 14.8 µM | 38.5 µM | 3.53 µM | 15.4 µM | 14.3 µM | 27.4 µM | 3.9 µM | 35.5 µM |  |  | 19 µM | 35.5 µM | 20.4 µM | 78.5 µM
COc1cc([N+](=O)[O-])ccc1NC(=O)C(F)(F)F |  | > 100 µM |  | > 100 µM |  |  |  | > 100 µM |  | > 100 µM |  | > 100 µM |  | > 100 µM |  | > 100 µM |  | > 100 µM |  | > 100 µM
COc1cc2c3c(n(CCCCl)c(=O)c2cc1OC)-c1ccccc1C3=O | > 100 µM | > 100 µM | > 100 µM | > 100 µM |  |  | 37 µM | > 100 µM | > 100 µM | > 100 µM | 21.9 µM | > 100 µM | > 100 µM | > 100 µM |  |  | 10.6 µM | 54.8 µM |  | 
COC(=O)c1cc2c(c(C(=O)OC)c1O)C(=O)C=CC2=O |  |  |  |  | > 9.1 µM | > 58.4 µM |  |  | > 9.1 µM | > 49.4 µM | > 9.1 µM | > 55.1 µM |  |  | > 9.1 µM | > 54 µM | > 9.1 µM | > 60.9 µM | > 9.1 µM | > 9.1 µM and 98.8 µM
O=C1C2=C(CC3C(C2)C3(Br)Br)C(=O)C2=C1CC1C(C2)C1(Br)Br (stereo not given) |  |  |  |  |  | > 100 µM |  |  |  | > 100 µM |  | > 100 µM |  |  |  | > 100 µM |  | > 100 µM |  | > 100 µM
COc1cc(C(=O)O[C@H](C(N)=O)[C@]2(C)CO2)c2ccccc2c1 | 23.7 µM | 53.2 µM |  |  | 16.2 µM | 36.5 µM | 13 µM | 27.7 µM | 23.8 µM | 70.6 µM | 7.52 µM | 22 µM | 10.7 µM | 27.3 µM | 10.1 µM | 48.6 µM | 22.7 µM | 45.2 µM | 16.6 µM | 39.7 µM
CCC(C)(O)c1cn(-c2cccc(S(=O)(=O)O)c2)nn1 (stereo not given) |  |  |  |  |  | > 100 µM |  |  |  | > 100 µM |  | > 100 µM |  |  |  | > 100 µM |  | > 100 µM |  | > 100 µM
CC(=O)c1ccc(NC(=O)/C(Cc2ccccn2)=N/NC(=O)C[N+](C)(C)C)cc1 |  |  |  |  |  | > 100 µM |  |  |  | > 100 µM |  | > 100 µM |  |  |  | > 100 µM |  | > 100 µM |  | > 100 µM
CCCCC/C=C/C/C=C/CCCCCCCC1=NC(C)(C)CN1C(C)C | 1.5 µM | 2.82 µM | 1.73 µM | 3.11 µM |  |  | 1.75 µM | 4.36 µM | 1.63 µM | 3.17 µM |  |  | 1.97 µM | 3.98 µM | 1.55 µM | 3 µM | 1.49 µM | 2.81 µM | 1.47 µM | 2.79 µM
CC(=O)NC(CCCN)C(=O)NCc1ccccc1 (stereo not given) |  |  |  |  |  | > 100 µM |  |  |  | > 100 µM |  | > 100 µM |  |  |  | > 100 µM |  | > 100 µM |  | > 100 µM
COc1ccc(OC)c(/C=C/NC=O)c1 |  |  |  | > 100 µM |  | > 100 µM |  |  |  | > 100 µM |  | > 100 µM |  |  |  | > 100 µM |  | > 100 µM |  | > 100 µM
C[C@]12CC[C@@H]3c4ccc(O)cc4CC[C@H]3[C@@H]1CC[C@@H]2NS(=O)(=O)c1ccc(C(F)(F)F)cc1 | 2.12 µM | 5 µM | 2.75 µM | 7.11 µM | 2.03 µM | 4.37 µM | 1.74 µM | 3.31 µM | 1.68 µM | 3.62 µM | 1.7 µM | 3.07 µM | 2.68 µM | 6.32 µM | 1.42 µM | 2.78 µM |  |  | 1.83 µM | 3.38 µM
